Laboratory results published in ChEMBL document CHEMBL5465560, “Selectivity Literature for EUbOPEN Chemogenomic Library” (2024).

Experiments:
[1] = target: CDK7/Cyclin H/MNAT1 (Homo sapiens) (UniProt P51946+P50613+P51948); test: Selectivity interaction (Millipore kinase profiler) EUB0000124b CDK7; type: protein-complex assay; details: at 10 µM
[2] = target: T1, Aurora kinase C (Homo sapiens) (UniProt Q9UQB9); test: Selectivity interaction (KinomeScan (DiscoverX)) EUB0000666a AURKC; details: at 10 µM
T1 sequence (whole entry): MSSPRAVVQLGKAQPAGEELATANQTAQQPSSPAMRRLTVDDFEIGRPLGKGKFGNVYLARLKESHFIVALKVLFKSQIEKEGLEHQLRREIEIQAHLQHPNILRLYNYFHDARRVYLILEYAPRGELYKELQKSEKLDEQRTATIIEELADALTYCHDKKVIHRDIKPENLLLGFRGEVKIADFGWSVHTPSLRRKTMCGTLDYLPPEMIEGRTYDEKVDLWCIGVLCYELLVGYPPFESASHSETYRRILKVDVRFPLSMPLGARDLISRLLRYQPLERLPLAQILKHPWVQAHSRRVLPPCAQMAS

[3] = target: Fibroblast growth factor receptor 2 (Homo sapiens) (UniProt P21802); test: Selectivity interaction (KinaseProfiler screening (Millipore)) EUB0000601a FGFR2; details: at 3 µM
[4] = target: Mitogen-activated protein kinase 10 (Homo sapiens, UniProt P53779); details: at 10 µM
[5] = target: T2, Aurora kinase A (Homo sapiens) (UniProt O14965); details: at 10 µM
T2 sequence (whole entry): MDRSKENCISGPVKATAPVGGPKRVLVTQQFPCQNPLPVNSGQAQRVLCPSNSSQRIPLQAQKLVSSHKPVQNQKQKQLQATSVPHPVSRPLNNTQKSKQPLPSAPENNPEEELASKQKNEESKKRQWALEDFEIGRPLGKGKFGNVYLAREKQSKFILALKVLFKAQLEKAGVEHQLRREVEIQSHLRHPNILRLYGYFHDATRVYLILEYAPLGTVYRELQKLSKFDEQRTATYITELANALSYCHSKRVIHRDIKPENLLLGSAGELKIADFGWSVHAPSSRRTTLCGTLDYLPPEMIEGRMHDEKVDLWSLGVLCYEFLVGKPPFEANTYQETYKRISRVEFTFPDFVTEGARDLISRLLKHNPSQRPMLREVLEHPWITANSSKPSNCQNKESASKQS

[6] = target: Platelet-derived growth factor receptor alpha (Homo sapiens, UniProt P16234); test: Selectivity interaction (Kinase panel (Invitrogen)) EUB0000639a PDGFRA; details: at 200 nM
[7] = target: Phosphatidylinositol 4,5-bisphosphate 3-kinase catalytic subunit beta isoform (Homo sapiens) (UniProt P42338); test: Selectivity interaction (KinomeScan (DiscoverX)) EUB0000595a PIK3CB; details: at 10 µM
[8] = target: T3, Tyrosine-protein kinase ITK/TSK (Homo sapiens) (UniProt Q08881); test: Selectivity interaction (SelectScreen profiling (Invitrogen)) EUB0000607a ITK; details: at 2 µM
T3 sequence (whole entry): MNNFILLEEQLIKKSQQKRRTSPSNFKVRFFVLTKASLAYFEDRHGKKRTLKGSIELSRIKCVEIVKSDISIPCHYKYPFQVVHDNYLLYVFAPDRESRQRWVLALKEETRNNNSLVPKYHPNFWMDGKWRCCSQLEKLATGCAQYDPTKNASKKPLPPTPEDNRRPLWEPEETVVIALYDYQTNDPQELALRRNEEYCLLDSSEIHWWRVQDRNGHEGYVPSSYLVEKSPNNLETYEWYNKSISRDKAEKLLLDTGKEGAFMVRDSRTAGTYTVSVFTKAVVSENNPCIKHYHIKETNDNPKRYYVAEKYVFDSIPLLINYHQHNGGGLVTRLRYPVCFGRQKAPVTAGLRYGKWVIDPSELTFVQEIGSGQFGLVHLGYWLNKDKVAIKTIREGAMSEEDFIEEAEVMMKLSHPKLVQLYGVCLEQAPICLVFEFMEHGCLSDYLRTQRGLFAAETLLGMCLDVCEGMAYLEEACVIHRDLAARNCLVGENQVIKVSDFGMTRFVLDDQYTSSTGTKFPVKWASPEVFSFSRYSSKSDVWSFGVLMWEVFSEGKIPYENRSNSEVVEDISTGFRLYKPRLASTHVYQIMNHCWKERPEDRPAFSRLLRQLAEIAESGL

[9] = target: T4, Protein kinase C epsilon type (Homo sapiens) (UniProt Q02156); test: Selectivity interaction (KinomeScan (DiscoverX)) EUB0000607a PRKCE; details: at 10 µM
T4 sequence (whole entry): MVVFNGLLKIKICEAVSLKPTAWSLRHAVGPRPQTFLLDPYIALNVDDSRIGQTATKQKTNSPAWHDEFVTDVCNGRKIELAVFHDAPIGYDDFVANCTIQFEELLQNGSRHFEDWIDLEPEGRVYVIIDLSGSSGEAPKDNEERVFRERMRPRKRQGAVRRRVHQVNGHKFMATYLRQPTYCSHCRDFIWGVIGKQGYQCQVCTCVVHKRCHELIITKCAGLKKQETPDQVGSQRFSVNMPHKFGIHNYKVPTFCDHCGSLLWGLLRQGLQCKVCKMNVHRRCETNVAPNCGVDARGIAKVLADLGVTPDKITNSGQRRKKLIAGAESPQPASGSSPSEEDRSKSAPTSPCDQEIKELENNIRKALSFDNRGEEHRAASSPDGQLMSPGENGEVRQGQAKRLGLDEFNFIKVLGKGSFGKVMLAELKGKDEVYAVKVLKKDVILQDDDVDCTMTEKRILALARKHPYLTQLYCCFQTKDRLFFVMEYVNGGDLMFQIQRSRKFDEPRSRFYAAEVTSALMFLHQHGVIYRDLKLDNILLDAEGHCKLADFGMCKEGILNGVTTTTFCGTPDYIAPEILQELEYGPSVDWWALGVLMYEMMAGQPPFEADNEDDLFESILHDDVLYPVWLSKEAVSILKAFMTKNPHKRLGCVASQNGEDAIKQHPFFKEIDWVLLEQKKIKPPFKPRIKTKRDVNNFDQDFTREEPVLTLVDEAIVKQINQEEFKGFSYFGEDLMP

Sequence of Mitogen-activated protein kinase 10 (P53779 whole entry): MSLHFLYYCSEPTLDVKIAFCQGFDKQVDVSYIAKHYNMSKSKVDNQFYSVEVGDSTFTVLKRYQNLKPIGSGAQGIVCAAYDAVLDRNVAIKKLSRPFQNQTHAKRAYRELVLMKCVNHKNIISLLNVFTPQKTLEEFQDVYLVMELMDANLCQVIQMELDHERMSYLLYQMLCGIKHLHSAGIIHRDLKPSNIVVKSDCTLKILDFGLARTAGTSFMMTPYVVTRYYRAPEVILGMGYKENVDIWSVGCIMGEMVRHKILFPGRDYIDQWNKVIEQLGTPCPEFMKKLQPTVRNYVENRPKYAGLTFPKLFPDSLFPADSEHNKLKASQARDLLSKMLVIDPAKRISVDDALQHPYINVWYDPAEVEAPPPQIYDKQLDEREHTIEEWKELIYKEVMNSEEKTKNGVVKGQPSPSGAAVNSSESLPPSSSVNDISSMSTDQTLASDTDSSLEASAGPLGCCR
Sequence of Platelet-derived growth factor receptor alpha (P16234 whole entry, canonical isoform): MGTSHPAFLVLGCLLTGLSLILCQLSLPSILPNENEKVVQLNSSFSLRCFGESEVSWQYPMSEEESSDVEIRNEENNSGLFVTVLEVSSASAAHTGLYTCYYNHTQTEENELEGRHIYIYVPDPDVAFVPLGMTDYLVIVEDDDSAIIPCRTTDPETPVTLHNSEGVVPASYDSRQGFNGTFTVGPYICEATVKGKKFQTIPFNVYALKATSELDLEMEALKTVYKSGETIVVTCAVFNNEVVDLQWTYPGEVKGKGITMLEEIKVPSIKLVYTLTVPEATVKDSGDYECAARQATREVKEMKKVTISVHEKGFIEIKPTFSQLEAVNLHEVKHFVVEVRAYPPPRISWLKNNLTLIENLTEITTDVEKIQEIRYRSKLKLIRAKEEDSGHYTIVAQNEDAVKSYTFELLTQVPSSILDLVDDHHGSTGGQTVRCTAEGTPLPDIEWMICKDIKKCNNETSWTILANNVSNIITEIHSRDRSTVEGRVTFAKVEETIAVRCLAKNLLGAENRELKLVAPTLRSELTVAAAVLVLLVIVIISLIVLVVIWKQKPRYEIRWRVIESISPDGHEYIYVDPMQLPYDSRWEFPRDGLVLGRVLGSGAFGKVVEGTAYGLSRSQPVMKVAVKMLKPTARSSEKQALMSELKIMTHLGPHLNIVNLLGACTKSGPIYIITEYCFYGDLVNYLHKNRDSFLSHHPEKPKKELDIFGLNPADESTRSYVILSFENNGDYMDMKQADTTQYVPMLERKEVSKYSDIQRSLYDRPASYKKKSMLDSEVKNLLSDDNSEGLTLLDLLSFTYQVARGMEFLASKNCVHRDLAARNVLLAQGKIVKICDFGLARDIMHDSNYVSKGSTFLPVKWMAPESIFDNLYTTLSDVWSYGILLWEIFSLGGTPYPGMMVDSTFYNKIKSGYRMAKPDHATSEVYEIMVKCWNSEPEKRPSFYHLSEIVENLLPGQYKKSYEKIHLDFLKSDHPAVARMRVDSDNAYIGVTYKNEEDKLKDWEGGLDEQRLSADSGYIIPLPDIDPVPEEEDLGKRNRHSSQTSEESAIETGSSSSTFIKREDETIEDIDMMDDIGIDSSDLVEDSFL
Sequence of Fibroblast growth factor receptor 2 (Homo sapiens) (P21802 22-821 limits assumed): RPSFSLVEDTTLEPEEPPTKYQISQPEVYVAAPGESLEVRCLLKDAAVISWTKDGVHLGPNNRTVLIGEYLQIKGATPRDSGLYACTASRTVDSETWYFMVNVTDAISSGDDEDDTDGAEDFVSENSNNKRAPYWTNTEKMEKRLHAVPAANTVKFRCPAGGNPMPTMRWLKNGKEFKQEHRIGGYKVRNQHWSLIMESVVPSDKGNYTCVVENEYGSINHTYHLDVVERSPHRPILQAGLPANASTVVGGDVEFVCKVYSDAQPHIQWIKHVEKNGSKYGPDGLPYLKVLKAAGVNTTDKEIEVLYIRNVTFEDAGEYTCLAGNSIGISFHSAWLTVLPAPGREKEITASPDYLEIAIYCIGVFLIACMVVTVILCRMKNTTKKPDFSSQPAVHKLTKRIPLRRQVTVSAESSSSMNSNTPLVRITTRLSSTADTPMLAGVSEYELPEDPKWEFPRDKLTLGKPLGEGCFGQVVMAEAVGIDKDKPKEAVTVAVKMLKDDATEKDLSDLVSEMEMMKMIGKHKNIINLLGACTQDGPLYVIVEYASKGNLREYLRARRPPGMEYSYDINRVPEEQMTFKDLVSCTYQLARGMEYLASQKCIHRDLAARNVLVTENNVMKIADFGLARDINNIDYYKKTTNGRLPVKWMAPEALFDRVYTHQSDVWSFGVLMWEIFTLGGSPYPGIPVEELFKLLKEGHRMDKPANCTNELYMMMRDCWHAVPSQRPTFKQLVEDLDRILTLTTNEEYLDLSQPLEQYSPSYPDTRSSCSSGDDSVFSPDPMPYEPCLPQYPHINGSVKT
Sequence of Phosphatidylinositol 4,5-bisphosphate 3-kinase catalytic subunit beta isoform (Homo sapiens) (P42338 whole entry, looked up, canonical isoform): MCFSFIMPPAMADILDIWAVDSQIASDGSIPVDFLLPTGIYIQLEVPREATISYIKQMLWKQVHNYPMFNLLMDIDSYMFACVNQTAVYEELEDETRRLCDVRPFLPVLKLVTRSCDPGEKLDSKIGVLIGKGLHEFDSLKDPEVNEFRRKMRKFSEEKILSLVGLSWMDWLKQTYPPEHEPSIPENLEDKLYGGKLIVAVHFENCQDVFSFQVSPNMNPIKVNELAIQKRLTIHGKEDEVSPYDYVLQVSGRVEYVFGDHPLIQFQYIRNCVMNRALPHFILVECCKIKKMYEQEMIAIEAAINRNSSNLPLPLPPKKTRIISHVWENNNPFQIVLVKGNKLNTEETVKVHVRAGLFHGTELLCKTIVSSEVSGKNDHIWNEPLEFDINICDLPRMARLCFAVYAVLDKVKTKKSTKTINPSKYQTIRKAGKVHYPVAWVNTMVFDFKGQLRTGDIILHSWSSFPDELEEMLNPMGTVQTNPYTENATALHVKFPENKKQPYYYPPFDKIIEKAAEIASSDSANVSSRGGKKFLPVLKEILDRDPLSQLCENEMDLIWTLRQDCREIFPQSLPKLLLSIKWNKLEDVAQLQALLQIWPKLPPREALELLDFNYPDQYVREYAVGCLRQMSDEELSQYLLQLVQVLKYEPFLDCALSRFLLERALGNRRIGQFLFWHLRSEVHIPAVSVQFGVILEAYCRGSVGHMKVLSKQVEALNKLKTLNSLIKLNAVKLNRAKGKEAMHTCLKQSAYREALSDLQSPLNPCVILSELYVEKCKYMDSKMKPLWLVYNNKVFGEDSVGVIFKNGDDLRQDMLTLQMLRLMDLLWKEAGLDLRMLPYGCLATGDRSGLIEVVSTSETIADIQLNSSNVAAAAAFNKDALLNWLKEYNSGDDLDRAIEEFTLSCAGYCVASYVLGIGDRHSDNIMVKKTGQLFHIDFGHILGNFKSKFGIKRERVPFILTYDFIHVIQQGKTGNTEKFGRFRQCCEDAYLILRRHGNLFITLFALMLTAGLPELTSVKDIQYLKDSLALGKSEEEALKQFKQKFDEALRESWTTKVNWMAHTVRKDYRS

## CC(=O)Nc1cccc(-n2c(=O)n(C3CC3)c(=O)c3c(Nc4ccc(I)cc4F)n(C)c(=O)c(C)c32)c1
[1]
  % of control: 106%

## O=C(NOC[C@H](O)CO)c1ccc(F)c(F)c1Nc1ccc(I)cc1F
[2]
  % of control: 45%

## CCc1cc(Nc2nccc(-c3c(-c4ccc(OC)c(C(=O)Nc5c(F)cccc5F)c4)nc4ccccn34)n2)c(OC)cc1N1CCC(N2CCN(S(C)(=O)=O)CC2)CC1
[3]
  % of inhibition: 50%

## CCN(CC)CCCCNc1ncc2cc(-c3cc(OC)cc(OC)c3)c(NC(=O)NC(C)(C)C)nc2n1
[4]
  % of control: 100%
[5]
  % of control: 100%

## CC[C@@H]1[C@H](F)C(=O)N[C@@H]1COc1nccc2cc(C(N)=O)c(OC)cc12 [ZIMLOVISERTIB]
[6]
  % of inhibition: -1.69%

## COCC(=O)NC/C=C/c1ccc2ncnc(Nc3ccc(Oc4ccc(C)nc4)c(C)c3)c2c1 [CP-724714]
[7]
  % of control: 100%

## CNC(=O)Nc1ccc(-c2nc(N3CC4CCC(C3)O4)c3cnn(C4CCC5(CC4)OCCO5)c3n2)cc1
[8]
  % of inhibition: 2%
[9]
  % of control: 100%
